Assay results taken from ChEMBL document CHEMBL1821716, “Pyrazolopyridine inhibitors of B-RafV600E. Part 2: structure-activity relationships” (Bioorg Med Chem Lett, 2011).

Tests used:
[1] = Inhibition of basal ERK phosphorylation in human MALME-3M cells; type: cell-based
[2] = target: Serine/threonine-protein kinase B-raf (Homo sapiens, UniProt P15056, V600E); experiment: Inhibition of full length B-Raf V600E mutant
Serine/threonine-protein kinase B-raf, sequence (P15056 2-766 V600E limits assumed): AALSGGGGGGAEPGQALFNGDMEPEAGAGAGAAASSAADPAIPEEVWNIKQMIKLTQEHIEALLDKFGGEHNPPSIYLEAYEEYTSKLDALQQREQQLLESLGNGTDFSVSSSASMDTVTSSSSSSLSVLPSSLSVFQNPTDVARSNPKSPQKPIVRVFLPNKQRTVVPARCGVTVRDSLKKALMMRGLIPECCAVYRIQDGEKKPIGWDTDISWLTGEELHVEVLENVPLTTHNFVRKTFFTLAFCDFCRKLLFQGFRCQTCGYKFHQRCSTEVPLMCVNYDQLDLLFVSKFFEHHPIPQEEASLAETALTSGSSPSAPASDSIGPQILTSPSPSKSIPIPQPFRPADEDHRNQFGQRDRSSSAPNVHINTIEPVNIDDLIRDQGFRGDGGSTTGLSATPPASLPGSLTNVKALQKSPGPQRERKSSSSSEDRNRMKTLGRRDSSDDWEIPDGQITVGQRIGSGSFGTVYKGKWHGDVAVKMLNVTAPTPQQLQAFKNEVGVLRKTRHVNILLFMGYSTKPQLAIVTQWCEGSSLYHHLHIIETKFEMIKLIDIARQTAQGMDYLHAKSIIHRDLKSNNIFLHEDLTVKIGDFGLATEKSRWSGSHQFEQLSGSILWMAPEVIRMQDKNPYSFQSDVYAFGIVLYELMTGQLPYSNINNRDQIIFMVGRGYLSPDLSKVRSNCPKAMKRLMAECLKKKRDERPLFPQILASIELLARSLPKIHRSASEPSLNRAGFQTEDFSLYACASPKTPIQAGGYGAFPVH

| SMILES | IC50 [1] [nM] | IC50 [2] [nM] |
| --- | --- | --- |
| CCCS(=O)(=O)Nc1ccc(F)c(C(=O)Nc2cnc3[nH]nc(Br)c3c2)c1F | 44 |  |
| COc1n[nH]c2ncc(NC(=O)c3c(F)ccc(NS(=O)(=O)Cc4ccccc4)c3F)cc12 | 830 | 190 |
| CCCS(=O)(=O)Nc1ccc(Cl)c(C(=O)Nc2cnc3[nH]nc(OC)c3c2)c1 | 250 | 61 |
| CCCS(=O)(=O)Nc1ccc(F)c(C(=O)Nc2cnc3[nH]nc(OC)c3c2)c1OC | 180 | 110 |
| CCCS(=O)(=O)Nc1ccc(F)c(C(=O)Nc2cnc3[nH]nc(OC)c3c2)c1 | 350 | 150 |
| CCN(C)S(=O)(=O)Nc1ccc(F)c(C(=O)Nc2cnc3[nH]ccc3c2)c1F | 340 | 400 |
| CCCS(=O)(=O)Nc1ccc(F)c(C(=O)Nc2cnc3[nH]ncc3c2)c1F | 62 |  |
| O=C(Nc1cnc2[nH]ccc2c1)c1c(F)ccc(NS(=O)(=O)C2CC2)c1F | 710 | 99 |
| COc1n[nH]c2ncc(NC(=O)c3c(F)ccc(NS(=O)(=O)c4cn(C)cn4)c3F)cc12 | > 10000 |  |
| CCCS(=O)(=O)Nc1ccc(F)c(C(=O)Nc2cnc3[nH]nc(OC)c3c2)c1C(F)(F)F |  | 530 |
| CCCS(=O)(=O)Nc1ccc(F)c(C(=O)Nc2cnc3[nH]nc(C)c3c2)c1F | 86 |  |
| CCCS(=O)(=O)Nc1ccc(F)c(C(=O)Nc2cnc3[nH]ccc3c2)c1 |  | 210 |
| CCCS(=O)(=O)Nc1ccc(Cl)c(C(=O)Nc2cnc3[nH]nc(OC)c3c2)c1F | 20 |  |
| CCCS(=O)(=O)Nc1ccc(OC)c(C(=O)Nc2cnc3[nH]nc(OC)c3c2)c1F |  | 2600 |
| COc1n[nH]c2ncc(NC(=O)c3c(F)ccc(NS(=O)(=O)c4ccccc4)c3F)cc12 | 17 |  |
| CCCS(=O)(=O)Nc1ccc(F)c(C(=O)Nc2cnc3[nH]cc(Br)c3c2)c1F | 39 |  |
| CCCS(=O)(=O)Nc1ccc(F)c(C(=O)Nc2cnc3[nH]ccc3c2)c1F | 94 |  |
| CCCS(=O)(=O)Nc1ccc(F)c(C(=O)Nc2cnc3[nH]ccc3c2)c1C |  | 680 |

More lines, in order of falling IC50 [2], values ahead:

| IC50 [1] [nM] | IC50 [2] [nM] | SMILES |
| --- | --- | --- |
| 28 | 29 | CCN(C)S(=O)(=O)Nc1ccc(F)c(C(=O)Nc2cnc3[nH]nc(OC)c3c2)c1F |
| 75 | 19 | O=C(Nc1cnc2[nH]ccc2c1)c1c(F)ccc(NS(=O)(=O)CCCF)c1F |
| 290 | 19 | CCCS(=O)(=O)Nc1ccc(F)c(C(=O)Nc2cnc3[nH]cc(CC)c3c2)c1F |
| 410 | 19 | CCCS(=O)(=O)Nc1cc(F)c(F)c(C(=O)Nc2cnc3[nH]ccc3c2)c1F |
| 180 | 18 | CCNS(=O)(=O)Nc1ccc(F)c(C(=O)Nc2cnc3[nH]nc(OC)c3c2)c1F |
| 31 | 17 | COc1n[nH]c2ncc(NC(=O)c3c(F)ccc(NS(=O)(=O)CC4CC4)c3F)cc12 |
| 280 | 16 | COc1n[nH]c2ncc(NC(=O)c3c(F)ccc(NS(=O)(=O)c4ccccn4)c3F)cc12 |
| 38 | 13 | CCCS(=O)(=O)Nc1cccc(C(=O)Nc2cnc3[nH]nc(OC)c3c2)c1F |
| 80 | 7.5 | CCCS(=O)(=O)Nc1cc(F)cc(C(=O)Nc2cnc3[nH]nc(OC)c3c2)c1F |
| 62 | 6.9 | CCCS(=O)(=O)Nc1ccc(F)c(C(=O)Nc2cnc3[nH]nc(O[C@@H]4CCOC4)c3c2)c1F |
| 280 | 5.8 | CCCS(=O)(=O)Nc1ccc(F)c(C(=O)Nc2cnc3[nH]nc(C(F)(F)F)c3c2)c1F |
| 76 | 3.5 | CCCS(=O)(=O)Nc1ccc(F)c(C(=O)Nc2cnc3[nH]nc(OCC4CCC4)c3c2)c1F |
| 60 | 2.2 | CCCS(=O)(=O)Nc1ccc(F)c(C(=O)Nc2cnc3[nH]cc(I)c3c2)c1F |
| 36 | 1.8 | CCCS(=O)(=O)Nc1ccc(F)c(C(=O)Nc2cnc3[nH]nc(I)c3c2)c1F |
| 30 | 0.2 | COc1n[nH]c2ncc(NC(=O)c3c(F)ccc(NS(=O)(=O)c4cccs4)c3F)cc12 |
